This note sets out measurements from article PMC6150242, “Design, Synthesis and Anticancer Evaluation of Fangchinoline Derivatives” (Molecules : A Journal of Synthetic Chemistry and Natural …, 2017).

What all share (assay type): cell-based
Series [1] deals with human prostate cancer PC3 cell line. Nature of the series: MTT in vitro cytotoxicity assay, PC3. The note with it: PC-3, MTT assay after 48 h of treatment, averaged from at least 3 independent experiments, variation ±10%, read-out: IC50 (µM) PC3. The method, then:
(§1) As summarized in Table 1, five cancer cell lines, including MDA-MB-231, PC3, WM9, HEL and K562 cell lines, were induced for testing the anti-cancer activities of those derivatives. The first line anti-cancer drug, vincristine, was treated as positive control. All the test compounds were dissolved in DMSO. The preliminary structure-activity relationship of all compounds against the 5 cancer cell lines was also investigated.
(§2) Human erythroleukemic cell lines HEL and K562, human breast cell lines MDA-MB-231, human prostate cell lines PC3 and human melanoma cell lines WM9 were cultured in RPMI (HEL and K562) or DMEM (MDA-MB-231, PC3, WM9) medium (high glucose) supplemented with 5% FBS (HyClone, GE Healthcare, Parramatta, Australia) and 1% ampicillin/streptomycin.
(§3) Cells were cultured in 96-well plates at densities of 1 × 10^5/well. The plates were pre-incubated at 37 °C for 24 h to allow adaptation of cells prior to the addition of the test compounds. Then, compounds were added to cells in triplicate in several doses, and incubated for an additional 2 days. The 50% inhibitory concentrations (IC50) were measured for fangchinoline derivatives using MTT (diphenyltetrazolium bromide) assay.
(Tetrazolium assays rely on reduction of a dye to a coloured formazan, in cell work by metabolically active cells.)

Series [2] concerns human leukaemia HEL cell line. Nature of the series: MTT in vitro cytotoxicity assay, HEL. The following applies: MTT assay after 48 h of treatment, averaged from at least 3 independent experiments, variation ±10%, read-out: IC50 (µM) HEL. How it is done:
as §1, §2, §3

Series [3] concerns human melanoma WM9 cell line. Nature of the series: MTT in vitro cytotoxicity assay, WM9. The note with it: Homo sapiens, WM9; MTT assay after 48 h of treatment; averaged from at least 3 independent experiments; variation ±10%; read-out: IC50 (µM) WM9. How it is done:
as §1, §2, §3

Series [4] concerns normal human liver cell line HL7702. Nature of the series: Toxicity on normal human liver cell line. The note with it: HL7702 versus cancer cell lines. How it is done:
(§4) 3 fangchinoline derivatives were also tested for their toxicities on normal human liver cell line HL7702.
as §3

Series [5] is described as follows: Toxicity on normal human liver cell line. The following applies: HL7702 normal liver cells; normal human liver cell line HL7702; read-out: IC50 against HL7702 cell growth. The method, then:
as §4, §3

Series [6] deals with human breast cancer MDA-MB-231 cell line. Nature of the series: MTT in vitro cytotoxicity assay, MDA-MB-231. The following applies: MDA-MB-231, MTT assay after 48 h of treatment, averaged from at least 3 independent experiments, variation ±10%, read-out: IC50 (µM) MDA-MB-231. The method, then:
as §1, §2, §3

The test system of series [7] is human leukaemia K562 cell line. Nature of the series: MTT in vitro cytotoxicity assay, K562. The following applies: K562, MTT assay after 48 h of treatment, averaged from at least 3 independent experiments, variation ±10%, read-out: IC50 (µM) K562. The method, then: as §1, §2, §3

As a reminder, the IC50 is the midpoint of a concentration-inhibition curve. `COc1ccc2cc1Oc1ccc(cc1)C[C@H]1c3cc(c(OC)cc3CCN1C)Oc1c(OC(=O)c3ccco3)c(OC)cc3c1[C@H](C2)N(C)CC3` [Compound 3g, 7-O-(Furan-m-formyl)-fangchinoline]: the IC50 in series [1] is 4.33 µM; in series [2], 4.04 µM; in series [3], 3.13 µM; in series [6] it was 6.02 µM; in series [7], 6.39 µM. In series [4], the “fold lower toxicity on HL7702 than inhibition on cancer cell lines” value is recorded as approximately 3 fold. Further, the IC50 at 2 days in series [5] worked out at 17.3 µM.
As to `COc1ccc2cc1Oc1ccc(cc1)C[C@H]1c3cc(c(OC)cc3CCN1C)Oc1c(OS(=O)(=O)c3ccc(C)cc3)c(OC)cc3c1[C@H](C2)N(C)CC3` [Compound 3b, 7-O-Tosyl-fangchinoline], the IC50 is 3.59 µM in series [1]; 2.95 µM in series [2]; 3.95 µM in series [3]; 4.61 µM in series [6]; 3.85 µM in series [7].
In the same order, the values of `COc1ccc2cc1Oc1ccc(cc1)C[C@H]1c3cc(c(OC)cc3CCN1C)Oc1c(OC(=O)c3ccccc3)c(OC)cc3c1[C@H](C2)N(C)CC3` [Compound 3i, 7-O-Benzoyl-fangchinoline] are 4.57 µM, 2.04 µM, 2.73 µM, 3.46 µM and 2.86 µM.
In the same order, the values of `CC[C@]1(O)C[C@H]2CN(CCc3c([nH]c4ccccc34)[C@@](C(=O)OC)(c3cc4c(cc3OC)N(C=O)[C@H]3[C@@](O)(C(=O)OC)[C@H](OC(C)=O)[C@]5(CC)C=CCN6CC[C@]43[C@@H]65)C2)C1` [Vincristine, reference compound] are 5.36 µM, 6.38 µM, 10.6 µM, 13.1 µM and 5.62 µM.
In the same order, the values of `COc1ccc2cc1Oc1ccc(cc1)C[C@H]1c3cc(c(OC)cc3CCN1C)Oc1c(OCc3ccccc3)c(OC)cc3c1[C@H](C2)N(C)CC3` [Compound 1a, 7-O-Benzyl-fangchinoline] are 3.65 µM, 4.42 µM, 3.44 µM, 5.13 µM and 4.75 µM.
For the compound `COc1ccc2cc1Oc1ccc(cc1)C[C@H]1c3cc(c(OC)cc3CCN1C)Oc1c(OCC=C(C)C)c(OC)cc3c1[C@H](C2)N(C)CC3` [Compound 1b, 7-O-(3-Methylbut-1-ene)-fangchinoline], the IC50 in series [1] turned out to be 7.22 µM; in series [2], 4.01 µM; in series [3], 5.56 µM; in series [6] it was 4.44 µM; in series [7] it was 6.6 µM.
As for `COc1cc([N+](=O)[O-])c2cc1Oc1ccc(cc1)C[C@H]1c3cc(c(OC)cc3CCN1C)Oc1c(OCc3ccccc3)c(OC)cc3c1[C@H](C2)N(C)CC3` [Compound 2a, 7-Benzyl-14-nitro-fangchinoline], the IC50 was found to be 3.69 µM in series [1]; 8.96 µM in series [2]; 3.04 µM in series [3]; 8.6 µM in series [6]; 8.33 µM in series [7]. The IC50 at 2 days in series [5] is 5.6 µM.
For `C=CCOc1c(OC)cc2c3c1Oc1cc4c(cc1OC)CCN(C)[C@H]4Cc1ccc(cc1)Oc1cc(ccc1OC)C[C@@H]3N(C)CC2` [Compound 1c, 7-O-(Prop-1-ene)-fangchinoline], the IC50 came to 4.75 µM in series [1]; 4.72 µM in series [2]; 3.05 µM in series [3]; 5.04 µM in series [6]; 6.78 µM in series [7].
`COc1ccc2cc1Oc1ccc(cc1)C[C@H]1c3cc(c(OC)cc3CCN1C)Oc1c(OS(=O)(=O)c3ccccc3[N+](=O)[O-])c(OC)cc3c1[C@H](C2)N(C)CC3` [Compound 3c, 7-O-(o-Nirtobenzessulfonyl)-fangchinoline]: the IC50 is 4.76 µM in series [1]; 6.82 µM in series [2]; 3.58 µM in series [3]; 8.7 µM in series [6]; 4.06 µM in series [7].
For `COc1cc(Br)c2cc1Oc1ccc(cc1)C[C@H]1c3cc(c(OC)cc3CCN1C)Oc1c(OC(=O)c3ccccc3)c(OC)c(Br)c3c1[C@H](C2)N(C)CC3` [Compound 4a, 7-O-Benzoyl-5,14-dibromo-fangchinoline] the same measures were 4.22 µM, 2.65 µM, 2.51 µM, 4.12 µM and 2.45 µM.
For `COc1cc(Cl)c2cc1Oc1ccc(cc1)C[C@H]1c3cc(c(OC)cc3CCN1C)Oc1c(OC(=O)c3ccccc3)c(OC)c(Cl)c3c1[C@H](C2)N(C)CC3` [Compound 4b, 7-O-Benzoyl-5,14-dichloro-fangchinoline] the same measures were 3.85 µM, 5.11 µM, 3.54 µM, 7.22 µM and 3.16 µM.
Take `COc1ccc2cc1Oc1ccc(cc1)C[C@H]1c3cc(c(OC)cc3CCN1C)Oc1c(OC(C)=O)c(OC)cc3c1[C@H](C2)N(C)CC3` [Compound 3a, 7-O-Acetyl-fangchinoline]: the IC50 in series [1] amounted to 3.01 µM; in series [2] it was 2.75 µM; in series [3], 2.65 µM; in series [6], 6.67 µM; in series [7], 6.99 µM.
